Measured values from patent US20250019387A1 (Frontier Medicines Corporation, priority 0001, published 2025).
pIC50: −log10 of the molar value.

Target: KRAS G12C and cRAF (Ras-binding domain) interaction (Homo sapiens (Human), UniProt P01116, C118S/C51S/C80L/G12C)
Assay: Inhibition of KRAS G12C and cRAF binding (AlphaScreen)
Details: GMPPNP-loaded KRAS G12C, 19-20 hours incubation with compound; read-out: IC50 (Inhibition of KRAS G12C and cRAF Binding)
How it was run: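 IC50 values come from 4-parameter nonlinear regression of AlphaScreen signal (680 nm excitation, 570 nm emission). Compound plates sat 19-20 h at room temperature before RBD and donor/acceptor beads were added in Hepes pH 7.4 buffer with 150 mM NaCl, 5 mM MgCl2, 2% DMSO for 60-90 min; biotin-AviTag-GST replaced RBD to flag assay-technology interferers.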

Sequence of KRAS G12C and cRAF (Ras-binding domain) interaction (P01116 other isoform, or with tags, fused parts or gaps G12C/C51S/C80L/C118S): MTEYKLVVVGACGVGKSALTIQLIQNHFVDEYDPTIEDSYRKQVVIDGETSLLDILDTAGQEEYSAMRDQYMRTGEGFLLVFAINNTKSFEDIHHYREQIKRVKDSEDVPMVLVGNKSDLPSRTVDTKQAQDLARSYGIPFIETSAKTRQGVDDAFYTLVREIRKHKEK

With `COC(=O)/C=C/C(=O)N1CC[C@@H](N(C)c2nc(OC[C@@H]3CCCN3C)nc3c(F)c(-c4cccc5cccc(Cl)c45)ncc23)C1` [Example 27, methyl(E)-4-((R)-3-((7-(8-chloronaphthalen-1-yl)-8-fluoro-2-(((S)-1-methylpyrrolidin-2-yl)methoxy)pyrido[4,3-d]pyrimidin-4-yl)(methyl)amino)pyrrolidin-1-yl)-4-oxobut-2-enoate] the pIC50 was > 8.00.
A pIC50 of 7.00 to 8.00 was found for `CN(CC1CN(C#N)C1)c1nc(OCC23CCCN2CCC3)nc2c(F)c(-c3cccc4cccc(Cl)c34)ncc12` [Example 28, 3-(((7-(8-chloronaphthalen-1-yl)-8-fluoro-2-((tetrahydro-1H-pyrrolizin-7a(5H)-yl)methoxy)pyrido[4,3-d]pyrimidin-4-yl)(methyl)amino)methyl)azetidine-1-carbonitrile] in this work.
A pIC50 of 6.30 to 7.00 was found for `CN(c1nc(OC[C@@H]2CCCN2C)nc2c1CCN(c1cccc3cccc(Cl)c13)C2)C1CCN(C#N)C1` (stereo partly drawn) [Example 29, 3-((7-(8-chloronaphthalen-1-yl)-2-(((S)-1-methylpyrrolidin-2-yl)methoxy)-5,6,7,8-tetrahydropyrido[3,4-d]pyrimidin-4-yl)(methyl)amino)pyrrolidine-1-carbonitrile] in this work.
`CN(CC1CN(C#N)C1)c1nc(OC[C@@H]2CCCN2C)nc2c1CCN(c1cccc3cccc(Cl)c13)C2` [Example 30, (S)-3-(((7-(8-chloronaphthalen-1-yl)-2-((1-methylpyrrolidin-2-yl)methoxy)-5,6,7,8-tetrahydropyrido[3,4-d]pyrimidin-4-yl)(methyl)amino)methyl)azetidine-1-carbonitrile] was tested, and the pIC50 was < 6.30.
In the case of `CN(CC1CCN(C#N)C1)c1nc(OC[C@@H]2CCCN2C)nc2c1CCN(c1cccc3cccc(Cl)c13)C2` (stereo partly drawn) [Example 31, 3-(((7-(8-chloronaphthalen-1-yl)-2-(((S)-1-methylpyrrolidin-2-yl)methoxy)-5,6,7,8-tetrahydropyrido[3,4-d]pyrimidin-4-yl)(methyl)amino)methyl)pyrrolidine-1-carbonitrile], the pIC50 was < 6.30.
`CN1CCC[C@H]1COc1nc2c(c(N3CCC(CNC#N)CC3)n1)CCN(c1cccc3cccc(Cl)c13)C2` [Example 32, (S)-N-((1-(7-(8-chloronaphthalen-1-yl)-2-((1-methylpyrrolidin-2-yl)methoxy)-5,6,7,8-tetrahydropyrido[3,4-d]pyrimidin-4-yl)piperidin-4-yl)methyl)cyanamide] was tested, and the pIC50 was < 6.30.
A pIC50 of 6.30 to 7.00 was found for `CN1CCC[C@H]1COc1nc2c(c(N(C)[C@@H]3CCN(C#N)C3)n1)CCN(c1cccc3cccc(Cl)c13)C2` [Example 33, (R)-3-((7-(8-chloronaphthalen-1-yl)-2-(((S)-1-methylpyrrolidin-2-yl)methoxy)-5,6,7,8-tetrahydropyrido[3,4-d]pyrimidin-4-yl)(methyl)amino)pyrrolidine-1-carbonitrile] in this work.
A pIC50 of 6.30 to 7.00 was found for `CN(CCC1CN(C#N)C1)c1nc(OC[C@@H]2CCCN2C)nc2c1CCN(c1cccc3cccc(Cl)c13)C2` [Example 34, (S)-3-(2-((7-(8-chloronaphthalen-1-yl)-2-((l-methylpyrrolidin-2-yl)methoxy)-5,6,7,8-tetrahydropyrido[3,4-d]pyrimidin-4-yl)(methyl)amino)ethyl)azetidine-1-carbonitrile] in this work.
A pIC50 of 7.00 to 8.00 was found for `CN(c1nc(OC[C@@H]2CCCN2C)nc2c(F)c(-c3cccc4cccc(Cl)c34)ncc12)C1CCN(C#N)C1` (stereo partly drawn) [Example 35, 3-((7-(8-chloronaphthalen-1-yl)-8-fluoro-2-(((S)-1-methylpyrrolidin-2-yl)methoxy)pyrido[4,3-d]pyrimidin-4-yl)(methyl)amino)pyrrolidine-1-carbonitrile] in this work.
A pIC50 of 7.00 to 8.00 was found for `CN1CCC[C@H]1COc1nc(N(C)[C@@H]2CCN(C#N)C2)c2cnc(-c3cccc4cccc(Cl)c34)c(F)c2n1` [Example 36, (R)-3-((7-(8-chloronaphthalen-1-yl)-8-fluoro-2-(((S)-1-methylpyrrolidin-2-yl)methoxy)pyrido[4,3-d]pyrimidin-4-yl)(methyl)amino)pyrrolidine-1-carbonitrile] in this work.
A pIC50 of 6.30 to 7.00 was found for `CN1CCC[C@H]1COc1nc2c(c(N3CC[C@@H]4CN(C#N)C[C@@H]43)n1)CCN(c1cccc3cccc(Cl)c13)C2` [Example 37, (3aR,6aR)-1-(7-(8-chloronaphthalen-1-yl)-2-(((S)-1-methylpyrrolidin-2-yl)methoxy)-5,6,7,8-tetrahydropyrido[3,4-d]pyrimidin-4-yl)hexahydropyrrolo[3,4-b]pyrrole-5(1H)-carbonitrile] in this work.
`C[C@@H]1C[C@@H](N(C)c2nc(OC[C@@H]3CCCN3C)nc3c2CCN(c2cccc4cccc(Cl)c24)C3)CN1C#N` [Example 38, (2R,4R)-4-((7-(8-chloronaphthalen-1-yl)-2-(((S)-1-methylpyrrolidin-2-yl)methoxy)-5,6,7,8-tetrahydropyrido[3,4-d]pyrimidin-4-yl)(methyl)amino)-2-methylpyrrolidine-1-carbonitrile] was tested, and the pIC50 was < 6.30.
A pIC50 of 6.30 to 7.00 was found for `CN(c1nc(OCC23CCCN2CCC3)nc2c1CCN(c1cccc3cccc(Cl)c13)C2)[C@@H]1CCN(C#N)C1` [Example 39, (R)-3-((7-(8-chloronaphthalen-1-yl)-2-((tetrahydro-1H-pyrrolizin-7a(5H)-yl)methoxy)-5,6,7,8-tetrahydropyrido[3,4-d]pyrimidin-4-yl)(methyl)amino)pyrrolidine-1-carbonitrile] in this work.
A pIC50 of 7.00 to 8.00 was found for `C=CC(=O)CN(C)c1nc(OC[C@@H]2CCCN2C)nc2c1CCN(c1cccc3cccc(Cl)c13)C2` [Example 40, (S)-1-((7-(8-chloronaphthalen-1-yl)-2-((1-methylpyrrolidin-2-yl)methoxy)-5,6,7,8-tetrahydropyrido[3,4-d]pyrimidin-4-yl)(methyl)amino)but-3-en-2-one] in this work.
A pIC50 of 7.00 to 8.00 was found for `C=CC(=O)C1CN(c2nc(OC[C@@H]3CCCN3C)nc3c2CCN(c2cccc4cccc(Cl)c24)C3)C1` [Example 41, (S)-1-(1-(7-(8-chloronaphthalen-1-yl)-2-((1-methylpyrrolidin-2-yl)methoxy)-5,6,7,8-tetrahydropyrido[3,4-d]pyrimidin-4-yl)azetidin-3-yl)prop-2-en-1-one] in this work.
A pIC50 of 7.00 to 8.00 was found for `C=CC(=O)C1CCN(c2nc(OC[C@@H]3CCCN3C)nc3c2CCN(c2cccc4cccc(Cl)c24)C3)CC1` [Example 42, (S)-1-(1-(7-(8-chloronaphthalen-1-yl)-2-((1-methylpyrrolidin-2-yl)methoxy)-5,6,7,8-tetrahydropyrido[3,4-d]pyrimidin-4-yl)piperidin-4-yl)prop-2-en-1-one] in this work.
A pIC50 of 7.00 to 8.00 was found for `C=CC(=O)[C@@H]1[C@@H]2CN(c3nc(OC[C@@H]4CCCN4C)nc4c3CCN(c3cccc5cccc(Cl)c35)C4)C[C@@H]21` [Example 45, 1-((1R,5S,6R)-3-(7-(8-chloronaphthalen-1-yl)-2-(((S)-1-methylpyrrolidin-2-yl)methoxy)-5,6,7,8-tetrahydropyrido[3,4-d]pyrimidin-4-yl)-3-azabicyclo[3.1.0]hexan-6-yl)prop-2-en-1-one] in this work.
In the case of `C=CS(=O)(=O)CCCN(C)c1nc(OC[C@@H]2CCCN2C)nc2c1CCN(c1cccc3cccc(Cl)c13)C2` [Example 46, (S)-7-(8-chloronaphthalen-1-yl)-N-methyl-2-((1-methylpyrrolidin-2-yl)methoxy)-N-(3-(vinylsulfonyl)propyl)-5,6,7,8-tetrahydropyrido[3,4-d]pyrimidin-4-amine], the pIC50 was < 6.30.
A pIC50 of 7.00 to 8.00 was found for `C=CS(=O)(=O)CCN(C)c1nc(OC[C@@H]2CCCN2C)nc2c1CCN(c1cccc3cccc(Cl)c13)C2` [Example 47, (S)-7-(8-chloronaphthalen-1-yl)-N-methyl-2-((1-methylpyrrolidin-2-yl)methoxy)-N-(2-(vinylsulfonyl)ethyl)-5,6,7,8-tetrahydropyrido[3,4-d]pyrimidin-4-amine] in this work.
A pIC50 of 6.30 to 7.00 was found for `C=CS(=O)(=O)[C@H]1C[C@H](N(C)c2nc(OC[C@@H]3CCCN3C)nc3c2CCN(c2cccc4cccc(Cl)c24)C3)C1` [Example 48, 7-(8-chloronaphthalen-1-yl)-N-methyl-2-(((S)-1-methylpyrrolidin-2-yl)methoxy)-N-((1r,3S)-3-(vinylsulfonyl)cyclobutyl)-5,6,7,8-tetrahydropyrido[3,4-d]pyrimidin-4-amine] in this work.
For `C=CS(=O)(=O)CCN(C)c1nc(OCC23CCCN2CCC3)nc2c1CCN(c1cccc3cccc(Cl)c13)C2` [Example 49, 7-(8-chloronaphthalen-1-yl)-2-((hexahydro-1H-pyrrolizin-7a-yl)methoxy)-N-methyl-N-(2-(vinylsulfonyl)ethyl)-5,6,7,8-tetrahydropyrido[3,4-d]pyrimidin-4-amine], the pIC50 was > 8.00.
For `C=CS(=O)(=O)C1CN(c2nc(OC[C@@H]3CCCN3C)nc3c2CCN(c2cccc4cccc(Cl)c24)C3)C1` [Example 50, (S)-7-(8-chloronaphthalen-1-yl)-2-((1-methylpyrrolidin-2-yl)methoxy)-4-(3-(vinylsulfonyl)azetidin-1-yl)-5,6,7,8-tetrahydropyrido[3,4-d]pyrimidine], the pIC50 was < 6.30.
With `C=CS(=O)(=O)C1CCN(c2nc(OC[C@@H]3CCCN3C)nc3c2CCN(c2cccc4cccc(Cl)c24)C3)C1` (stereo partly drawn) [Example 51, 7-(8-chloronaphthalen-1-yl)-2-(((S)-1-methylpyrrolidin-2-yl)methoxy)-4-(3-(vinylsulfonyl)pyrrolidin-1-yl)-5,6,7,8-tetrahydropyrido[3,4-d]pyrimidine] the pIC50 was < 6.30.
A pIC50 of 7.00 to 8.00 was found for `CN(C)C/C=C/S(=O)(=O)CCN(C)c1nc(OC[C@@H]2CCCN2C)nc2c1CCN(c1cccc3cccc(Cl)c13)C2` [Example 52, (S,E)-7-(8-chloronaphthalen-1-yl)-N-(2-((3-(dimethylamino)prop-1-en-1-yl)sulfonyl)ethyl)-N-methyl-2-((1-methylpyrrolidin-2-yl)methoxy)-5,6,7,8-tetrahydropyrido[3,4-d]pyrimidin-4-amine] in this work.
